From PMC6504873, “High-throughput screening of the Plasmodium falciparum cGMP-dependent protein kinase identified a thiazole scaffold which kills erythrocytic and sexual stage parasites” (Scientific Reports, 2019)

What was measured:
TQ PfPKG (PfPKG_T618Q) = biological target: T1, TQ PfPKG (PfPKG_T618Q) (Plasmodium falciparum, UniProt Q8I719, T618Q); assay: Kinase Glo enzymatic assay, gatekeeper mutant TQ PfPKG; assay type: biochemical, P. falciparum
T1 construct: His6 (N); host or cells: E. coli BL21
T1 sequence (Q8I719 whole entry T618Q): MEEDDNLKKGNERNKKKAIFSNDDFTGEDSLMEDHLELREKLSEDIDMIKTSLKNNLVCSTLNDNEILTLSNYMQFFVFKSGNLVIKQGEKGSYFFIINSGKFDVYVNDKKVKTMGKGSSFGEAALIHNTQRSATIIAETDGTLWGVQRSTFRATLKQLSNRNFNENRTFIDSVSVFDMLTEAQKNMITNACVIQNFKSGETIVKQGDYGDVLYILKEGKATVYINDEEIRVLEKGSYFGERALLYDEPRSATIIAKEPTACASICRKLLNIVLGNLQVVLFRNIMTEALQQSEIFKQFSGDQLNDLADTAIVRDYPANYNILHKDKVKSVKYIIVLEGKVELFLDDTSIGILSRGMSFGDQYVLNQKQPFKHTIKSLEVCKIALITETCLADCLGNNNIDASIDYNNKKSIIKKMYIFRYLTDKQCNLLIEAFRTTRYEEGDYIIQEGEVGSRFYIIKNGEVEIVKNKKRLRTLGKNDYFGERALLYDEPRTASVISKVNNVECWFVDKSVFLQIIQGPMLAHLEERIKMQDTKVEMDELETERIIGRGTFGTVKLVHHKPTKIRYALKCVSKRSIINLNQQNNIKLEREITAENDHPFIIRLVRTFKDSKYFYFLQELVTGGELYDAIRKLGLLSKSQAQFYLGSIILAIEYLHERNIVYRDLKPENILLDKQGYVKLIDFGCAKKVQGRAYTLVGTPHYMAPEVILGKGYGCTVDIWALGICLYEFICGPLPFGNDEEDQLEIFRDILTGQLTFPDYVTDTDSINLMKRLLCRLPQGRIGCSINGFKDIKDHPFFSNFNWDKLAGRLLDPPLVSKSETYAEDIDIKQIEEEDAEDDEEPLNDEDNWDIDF
Procedure: Taking advantage of the availability of more than 3,000 thiazole derivatives among the GSK compound collection, cluster 3 was thoroughly investigated for potent and selective inhibitors of WT PfPKG. […] We explored the binding mode by also testing compounds on the gatekeeper mutant enzyme TQ PfPKG. […] These two time points were chosen to give an indication of the speed of kill of the compounds. […] A preliminary safety test was performed on human AuroraB and LCK kinases which often underpin toxicity issues. […] Further assays for compound characterization included determination of solubility and cytotoxicity (HepG2 inhibition). Thiazoles have been previously identified as human BRaf inhibitors that are used to treat melanoma.
Protein production was outsourced to the Division of Signal Transduction Therapy, University of Dundee. Briefly, the pTRChis expression vectors (Invitrogen) containing an N-terminally His6-tagged PfPKG wildtype and T618Q were used to transform BL21 cells (protocol adapted from[23]). The cells were grown at 37 °C until the OD600 was 0.4–0.6 then the temperature was reduced to 15 °C and the cells were induced with 250 µM IPTG and grown for a further 16–18 hours before harvesting. The His6-PfPKG was purified on Cobalt agarose followed by gel filtration and the protein was dialysed into 25 mM Hepes pH 7.5, 0.1 mM EGTA, 150 mM NaCl, 50% glycerol and 2 mM DTT.
Initial optimization of the PKG assay was performed manually in 384-well plates and analysed with GraFit 7. The buffer for all assays was 25 mM HEPES pH 7.3 (GIBCO), 10 mM MgCl2 (Sigma), 2 mM DTT (Sigma), 0.01 mM cGMP (Sigma), 0.1 mg/ml BSA (Ambion). Enzymatic activity was tested using a luminescence-based kit (Promega KinaseGlo). Addition of the first reagent depletes the unused ATP and addition of the second reagent converts ADP (product of the kinase reaction) to ATP, which is then measured through a luciferin/luciferase reaction. The amount of luminescence is directly proportional to ATP turnover by the kinase. The kit was chosen because it can be miniaturized to small volumes (i.e. 4 µl) in 1536-well plates, for use in HTS.
We used PKA peptide substrate (SCP0212, Sigma-Aldrich) for WT and TQ PfPKG, dissolved in milliQ water at a final concentration of 5 mM, and Long S6 peptide substrate (produced at the University of Dundee, sequence […]) for HuPKGIα, dissolved in water at a final concentration of 30 mM.
We calculated the Michaelis-Menten (Km) constant for ATP and peptide substrate (PKA or Long S6) for all enzymes using GraphPad Prism (Supplementary Figs 2 and 3 and Supplementary Table 3). In order to identify different types of PKG inhibitors, including ATP competitive or non-competitive inhibitors, as well as inhibitors that bind to the peptide substrate pocket, we performed all assays using ATP and peptide substrate at a concentration equal to the Km. We also determined enzyme activity by calculating ATP turnover (Kcat) over the Km (Supplementary Table 3). The Kcat was calculated as (Vmax*slope)/[E] where Vmax is the maximum velocity and [E] is the concentration of the enzyme.
The plates containing the compounds were prepared at GSK in Upper Providence or Stevenage. Compounds were tested at a single final concentration of 10 µM or in a dose response with a range of concentrations starting from 100 μM to 1.6 nM (1 in 3 serial dilutions). Compounds were dispensed in the plates at the required concentration in a 40 nl volume. All plates (1536-well white Greiner) contained 40 nl of DMSO in lanes 11 and 12 (control 1, 100% enzyme activity) and were empty in lanes 35 and 36 (control 2, 0% enzyme activity). The plates were removed from −20 °C 1 hour before starting the assay. Using a Multidrop Combi dispenser (Thermo Scientific), 2 µl of the buffer containing ATP and the substrate were added to all wells then 2 µl of buffer only were added to column 35 and 36. […]

HepG2 cells = assay: Cytotoxicity assay (CellTiter-Glo); assay type: cell-based; conditions: Homo sapiens; HepG2 cytotoxicity; read-out: HepG2
Procedure: Cytotoxicity assays were performed on HepG2 cells as previously described. HepG2 cells were removed from a T-175 TC flask using 5 mL Eagle’s MEM (containing 10% FBS, 1% NEAA, 1% penicillin/streptomycin) and dispersed in the medium. Seeding density was checked to ensure that new mono-layers were not more than 50% confluent at the time of harvesting. Cells were added to 500 mL of the same medium at a final density of 1.2 × 10^5 cells/mL. They were then dispensed (25 μL, about 3,000 cells per well) into 384-well clear-bottom plates using a Multidrop Combi dispenser. Test compounds (250 nL) were dispensed into the plates with an EchoH liquid handler prior to addition of the cells. Plates were incubated for 48 h at 37 °C, 5% CO2. After incubation, plates were equilibrated at room temperature for 30 minutes before proceeding to develop the luminescent signal. The CellTiter-GloH Reagent was allowed to equilibrate at room temperature for 30 minutes and added to the plates (25 μL per well) using a Multidrop Combi dispenser. Plates were left for 10 minutes at room temperature for stabilization and then read using a Perkin Elmer ViewLux.

WT PfPKG = biological target: T2, WT PfPKG (Plasmodium falciparum, UniProt Q8I719); design: species or system P. falciparum; conditions: for LE: ligand efficiency; for LLE: lipophilic ligand efficiency
T2 construct: recombinant full length wild type (WT) PfPKG; His6 (N); host or cells: E. coli BL21
T2 sequence (Q8I719 whole entry): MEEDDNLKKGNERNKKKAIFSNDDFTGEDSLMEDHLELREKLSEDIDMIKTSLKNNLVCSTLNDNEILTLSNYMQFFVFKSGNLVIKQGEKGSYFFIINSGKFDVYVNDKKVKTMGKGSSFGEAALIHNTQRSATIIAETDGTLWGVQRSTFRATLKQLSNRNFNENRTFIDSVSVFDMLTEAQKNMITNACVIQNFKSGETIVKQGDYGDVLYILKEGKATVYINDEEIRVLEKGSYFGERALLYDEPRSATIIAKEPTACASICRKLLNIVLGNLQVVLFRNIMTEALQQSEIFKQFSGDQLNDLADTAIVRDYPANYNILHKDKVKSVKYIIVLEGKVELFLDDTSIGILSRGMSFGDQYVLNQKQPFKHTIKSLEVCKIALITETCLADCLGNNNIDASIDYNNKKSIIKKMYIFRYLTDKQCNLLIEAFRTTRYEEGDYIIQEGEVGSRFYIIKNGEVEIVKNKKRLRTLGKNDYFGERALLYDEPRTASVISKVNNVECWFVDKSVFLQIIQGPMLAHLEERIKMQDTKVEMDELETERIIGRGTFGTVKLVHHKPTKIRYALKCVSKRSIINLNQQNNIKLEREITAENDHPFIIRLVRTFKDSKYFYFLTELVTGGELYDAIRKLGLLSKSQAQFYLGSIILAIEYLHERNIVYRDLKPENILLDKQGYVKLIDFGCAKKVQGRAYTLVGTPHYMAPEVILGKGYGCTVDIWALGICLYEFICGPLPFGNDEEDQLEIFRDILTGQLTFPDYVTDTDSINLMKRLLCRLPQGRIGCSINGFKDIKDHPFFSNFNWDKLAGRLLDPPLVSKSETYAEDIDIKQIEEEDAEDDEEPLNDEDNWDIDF
From the text: A scoring system was developed to further prioritize interesting compounds. […] Three points were given to compounds that inhibit HuPKGIα at least 3 orders of magnitude less than WT PfPKG. […] We also considered how well the compounds bind to the target by taking into account two physicochemical properties: ligand efficiency (LE, 1.37 x pIC50/number heavy atoms) is a characterization of a compound’s efficiency on a per-heavy-atom basis[51] and lipophilic ligand efficiency (LLE, pIC50 – clogP) is a parameter used in drug design which links potency and lipophilicity in an attempt to estimate drug-likeness[52]. The ClogP coefficient measures lipophilicity. Values of LE ≥ 0.3 and LLE ≥ 5 are typically accepted as good starting points for optimizations efforts.

[1] = AM_Perm (artificial membrane permeability); assay type: in vitro ADME

SMILES | IC50 (TQ PfPKG (PfPKG_T618Q)) [µM] | IC50 (HepG2 cells) [µM] | LE (WT PfPKG) | LLE (WT PfPKG) | AM Perm [1] [×10⁻⁶ cm/s]
CNCCOc1cnc(-c2ccoc2C)c(-c2ccc3cnccc3c2)c1 [Compound 13] | 1.3 | 63.1 | 0.4 | 5.1 | 43.1
Cc1ccc(S(C)(=O)=O)cc1Nc1nccc(-c2sc(CC(N)=O)nc2-c2ccccc2)n1 [Compound 3] | 19.1 | 50.1 | 0.33 | 6.0 | 36.7
CC(C)(CN)c1cc(-c2ccc(Cl)c(O)c2)c(-c2ccncc2)o1 [Compound 4] | 36.7 | 12.6 | 0.5 | 5.5 | 53.1
COc1cccc(Nc2nc(-c3ccncc3)cc(N3CCN(C)CC3)n2)c1 [Compound 9] | 10 | 5 | 0.37 | 3.9 | 59.9
COc1ccc(CCNC(=O)CSc2ncnc3[nH]ncc23)cc1OC [Compound 8] | 22.1 | > 100 | 0.37 | 5.5 | 7
CNS(=O)(=O)c1cccc(Nc2ccnc(Nc3cccc(S(=O)(=O)NC)c3)n2)c1 [Compound 6] | 0.188 | 25.1 | 0.33 | 4.5 | 12.7
NCCNCc1ccc(-c2cc3ccncc3cc2OC2CCNCC2)s1 [Compound 12] | 0.851 | > 100 | 0.33 | 4.7 | 1.2
O=C(c1cccc(OCc2cccnc2)c1)N1CCc2sccc2C1CN1CCCCC1 (stereo not drawn) [Compound 14] | 0.473 | > 100 | 0.32 | 2.9 | 55.1
Nc1ccc2c(-c3ccncc3)c(-c3ccc(Cl)c(O)c3)[nH]c2n1 [Compound 15] | 24 | 20 | 0.44 | 4.9 | 11
CCn1cc(-c2ccncn2)c(-c2cccc(NS(=O)(=O)c3cc(F)ccc3F)c2)n1 [Compound 2] | > 100 | > 100 | 0.33 | 4.2 | 50.1
O=C(N[C@@H](CO)c1ccccc1)c1ccc2cncc(-c3cn[nH]c3)c2n1 [Compound 11] | 1 | > 100 | 0.36 | 4.9 | 8.6
COc1cc(CS(C)(=O)=O)ccc1Nc1nc(Nc2cc(F)ccc2C(N)=O)c2cc[nH]c2n1 [Compound 10] | 0.0248 | > 100 | 0.3 | 4.4 | 7.7
Nc1nc(Nc2cccc3cnccc23)nn1C(=O)C1CCCCC1 [Compound 16] | 1.8 | 79.4 | 0.4 | 3.6 | 33.9
CCn1c(-c2nonc2N)nc2c(-c3ccccc3)ncc(CN(C)C3CCN(C)CC3)c21 [Compound 5] | 21.9 | 12.6 | 0.3 | 4.3 | 22.9
COc1ccc(-c2c(-c3cccc(C(=O)N4CCN(C)CC4)c3)oc3ncnc(N)c23)cc1 [Compound 7] | 14.1 | > 100 | 0.33 | 5.4 | 32.4
